Test results from US20200030342A1, “DEHYDROEPIANDROSTERONE (DHEA) SUPPL[…] FEMALE SEXUAL DESIRE AND FUNCTION IN PRE-[…]” (American Infertility of New York, P.C., priority 2018, published 2020).

Columns and labels:
[1] = Endocrine evaluation: serum hormone levels before and after DHEA supplementation; format: in vivo, women
Text: (§1) All patients in the study were asked to complete the self-reported Female Sexual Function Index (FSFI) questionnaire^31 prior to initiation to DHEA supplements and again 4-8 weeks later. The patients' fertility treatments were not affected by their participation in this study, in laboratory investigations, and/or timing of procedures. Patients underwent the same standard endocrine evaluations all patients undergo at the Center for Human Reproduction, including measurement of serum androgen levels: DHEA, DHEAS, total (TT) and free testosterone (FT) before, and 4-8 weeks after, initiating 25 mg of oral DHEA supplementation TID. All here presented hormone levels were obtained by commercial assays (LabCorp, Burlington, N.C.). All androgen levels were measured using high-pressure liquid chromatography/tandem mass spectrometry.
The measurement procedures for measuring serum androgen and FSH are conventional. The formulation for an oral dosage of DHEA is conventional.

[2] = Center's experience with DHEA treatment of infertile patients: testosterone levels in response to DHEA or transdermal testosterone; format: in vivo, women
Text: One purpose of DHEA supplementation is raising testosterone levels. In other words, the biologically active hormone is testosterone. Its application, however, has more side effects. But some patients have a hard time converting DHEA to testosterone [Shohat-Tal A, Sen A, Barad D H, Kushnir V, Gleicher N. Genetics of androgen metabolism in women with infertility and hypoandrogenism. Nat Rev Endocrinol 2015; 11(7):429-441] and, therefore, must be treated directly with testosterone. The testosterone dosage is 0.05 mg transdermal by pump between once to 2-times per day for the same time period that DHEA supplementation dosages are taken. The peripheral testosterone levels and SHBG in blood are monitored and adjusted accordingly. Sex hormone binding globulin (SHBG) is a protein that is produced by the liver and binds tightly to the hormones testosterone, dihydrotestosterone (DHT), and estradiol (an estrogen). If patients require testosterone directly, the DHEA supplementation is still continued.

[3] = test system: premenopausal infertile women; test: Female Sexual Function Index (FSFI) questionnaire before and after DHEA supplementation, observational study; format: in vivo
Description: An observational study was conducted in an academically affiliated private fertility center. Patients included 87 premenopausal infertile women, 50 of whom completed the study including the Female Sexual Function Index (FSFI) questionnaires and comprehensive endocrine evaluation before and 4-8 weeks after initiating 25 mg of oral micronized DHEA TID. An example of a FSFI questionnaire is in a FSFI Scoring Appendix at the end of this patent application together with a discussion as to the manner of determining FSFI domain scores and full-scale score, which establish FSFI baselines.
as §1
Pearson correlation was used to investigate relationships between FSFI scores and patient demographics, as well as, hormone levels. Comparisons of FSFI scores and endocrine parameters before—and after—DHEA supplementation were made using paired T-tests. Based on starting FSFI scores patients were further subdivided into quartiles. Patient responses before and after DHEA supplementation from those in lowest and highest quartiles were then compared. Groups were compared using a two-sampled T-test or chi-square test. A P-value <0.05 was considered significant. All analyses were conducted using SAS version 9.4 (SAS Institute Inc. Cary, N.C.).
The individual domain scores and full scale (overall) score of the FSFI can be derived from the computational formula outlined in the table below. For individual domain scores, add the scores of the individual items that comprise the domain and multiply the sum by the domain factor (see below). Add the six domain scores to obtain the full scale score. […] Subject scores can be entered in the right-hand colum.

[4] = Baseline FSFI Score < 25.7, N = 12
[5] = Baseline FSFI Score ≥ 31.9, N = 13
[6] = whole group N=50, DHEA 25 mg TID 4-8 weeks, mean change
[7] = lowest starting FSFI score quartile (<25.7)
[8] = whole group N=50, DHEA 25 mg TID 4-8 weeks, mean change of domain score

For `C[C@]12CC[C@H](O)CC1=CC[C@@H]1[C@@H]2CC[C@]2(C)C(=O)CC[C@@H]12` [DHEA, dehydroepiandrosterone], the “Δ Hormone: AMH” value [1, 4] was 0.0 ± 0.6 ng/mL, the “Δ Hormone: Cortisol” value [1, 4] was 2.5 ± 1.6 µg/dL and the “Δ Hormone: DHEA” value [1, 4] was 291.0 ± 227.7 ng/dL. The “Δ Hormone: FSH” value [1, 4] was −3.6 ± 2.6 mIU/mL, the “Δ Hormone: Free Testosterone” value [1, 4] was 1.8 ± 1.3 pg/mL and the “Δ Hormone: SHBG” value [1, 4] was -15.8 ± 41.1 nmol/L. For the same compound, the “Δ Hormone: Total Testosterone” value [1, 4] was 16.4 ± 18.5 ng/dL, the “Δ Hormone: AMH” value [1, 5] was 0.1 ± 0.6 ng/mL and the “Δ Hormone: Cortisol” value [1, 5] was -0.4 ± 5.5 µg/dL. The “Δ Hormone: DHEA” value [1, 5] was 275.7 ± 186.6 ng/dL, the “Δ Hormone: FSH” value [1, 5] was −1.6 ± 3.5 mIU/mL and the “Δ Hormone: Free Testosterone” value [1, 5] was 0.5 ± 1.4 pg/mL. For the same compound, the “Δ Hormone: SHBG” value [1, 5] was -21.0 ± 51.6 nmol/L, the “Δ Hormone: Total Testosterone” value [1, 5] was 11.8 ± 18.6 ng/dL and the “Δ Hormone: AMH” value [1, 6] was 0.0 ng/mL. For the same compound, the “Δ Hormone: Cortisol” value [1, 6] was 1.3 µg/dL, the “Δ Hormone: FSH” value [1, 6] was −2.6 mIU/mL and the “Δ Hormone: Free Testosterone” value [1, 6] was 1.4 pg/mL. The “Δ Hormone: SHBG” value [1, 6] was -24.0 nmol/L, the “Δ Hormone: Total Testosterone” value [1, 6] was 15.1 ng/dL and the “Δ Hormone: DHEA” value ([1]; whole group N=50, DHEA 25 mg TID 4-8 weeks, mean change of serum level) was 235.1 ng/dL. For the same compound, the “AMH levels, change” value ([1]; whole study group) was “no change”, the “Cortisol levels, change” value ([1]; whole study group) was “no change” and the “FSH levels, decrease from baseline” value ([1]; whole study group, baseline 10.3±5.4 mIU/mL) was 2.6±4.4 mIU/mL. The “SHBG, decrease from baseline” value ([1]; whole study group, baseline 92.7±43.2 nmol/L) was 24.0 ± 39.4 nmol/L, the “All serum androgen levels (DHEA, DHEAS, TT, FT), change from baseline” value ([1]; whole study group, each P<0.0001) was “increased” and the “Patients who do not raise their testosterone levels in response to DHEA supplementation” value ([2]; infertile patients overall, a little more among African-descent women) was “less than 5%”. The “Δ Arousal” value [3, 4] was 1.3±1.7, the “Δ Desire” value [3, 4] was 1.0±0.8 and the “Δ Lubrication” value [3, 4] was 0.8±2.3. For the same compound, the “Δ Orgasm” value [3, 4] was 1.0±2.3, the “Δ Pain” value [3, 4] was 0.9±2.3 and the “Δ Satisfaction” value [3, 4] was 0.9±1.3. The “Δ Arousal” value [3, 5] was −0.2 ± 0.5, the “Δ Desire” value [3, 5] was −0.1 ± 0.6 and the “Δ Lubrication” value [3, 5] was −0.1 ± 0.6. For the same compound, the “Δ Orgasm” value [3, 5] was −0.5 ± 1.1, the “Δ Pain” value [3, 5] was −0.1 ± 0.4 and the “Δ Satisfaction” value [3, 5] was 0.0 ± 0.7. The “Δ FSFI Score” value ([3]; highest starting FSFI quartile, Baseline FSFI Score ≥ 31.9, N = 13, DHEA 25 mg TID 4-8 weeks) was −1.0 ± 2.7, the “Δ FSFI Score” value ([3]; lowest starting FSFI quartile, Baseline FSFI Score < 25.7, N = 12, DHEA 25 mg TID 4-8 weeks) was 6.1±8.0 and the “Improvement in domain arousal” value [3, 7] was 46%. The “Improvement in domain desire” value [3, 7] was 40%, the “Improvement in domain lubrication” value [3, 7] was 33% and the “Improvement in domain orgasm” value [3, 7] was 54%. For the same compound, the “Improvement in domain pain” value [3, 7] was 25%, the “Improvement in domain satisfaction” value [3, 7] was 24% and the “Increase in total FSFI score” value [3, 7] was 34%. The “Δ Arousal: Confidence” value [3, 6] was 0.4, the “Δ Arousal: Frequency” value [3, 6] was 0.3 and the “Δ Arousal: Level” value [3, 6] was 0.4. For the same compound, the “Δ Arousal: Satisfaction” value [3, 6] was 0.4, the “Δ Desire: Frequency” value [3, 6] was 0.5 and the “Δ Desire: Level” value [3, 6] was 0.5. The “Δ Lubrication: Difficulty (first line)” value [3, 6] was 0.3, the “Δ Lubrication: Difficulty (second line, after Maintaining)” value [3, 6] was 0.2 and the “Δ Lubrication: Frequency” value [3, 6] was 0.3. For the same compound, the “Δ Lubrication: Maintaining” value [3, 6] was 0.3, the “Δ Orgasm: Difficulty” value [3, 6] was 0.1 and the “Δ Orgasm: Frequency” value [3, 6] was 0.0. For the same compound, the “Δ Orgasm: Satisfaction” value [3, 6] was 0.1, the “Δ Pain: During” value [3, 6] was 0.3 and the “Δ Pain: Following” value [3, 6] was 0.2. The “Δ Pain: Level” value [3, 6] was 0.0, the “Δ Satisfaction: Closeness” value [3, 6] was 0.3 and the “Δ Satisfaction: Overall” value [3, 6] was 0.3. For the same compound, the “Δ Satisfaction: Relationship” value [3, 6] was 0.2, the “Δ Arousal” value [3, 8] was 0.5 and the “Δ Desire” value [3, 8] was 0.6. The “Δ Lubrication” value [3, 8] was 0.4, the “Δ Orgasm” value [3, 8] was 0.1 and the “Δ Pain” value [3, 8] was 0.2. For the same compound, the “Δ Satisfaction” value [3, 8] was 0.3, the “Δ FSFI Score” value ([3]; whole group, 50 premenopausal infertile women, oral micronized DHEA 25 mg TID, before vs 4-8 weeks after, mean) was 2.0 and the “Domain score for arousal, increase” value ([3]; whole study group) was 12%. The “Domain score for desire, increase” value ([3]; whole study group) was 17%, the “Domain score for orgasm, change” value ([3]; whole study group) was “no significant changes” and the “Domain score for pain, change” value ([3]; whole study group) was “no significant changes”. The “Domain score for satisfaction, change” value ([3]; whole study group) was “no significant changes”, the “Domain score for lubrication, trend towards improvement” value ([3]; whole study group, P=0.0551) was 8% and the FSFI score increase ([3]; whole study group, following DHEA supplementation) was 7%. The “FSFI score after DHEA supplementation” value ([3]; whole study group, from baseline 27.2±6.9) was 29.2±5.6.

For `C[C@]12CC[C@H]3[C@@H](CCC4=CC(=O)CC[C@@]43C)[C@@H]1CC[C@@H]2O` [testosterone], the “Testosterone levels achieved in patients not responding to DHEA” value ([2]; 0.05 mg transdermal by pump once to 2-times per day, same time period) was “very similar testosterone levels are achieved”.
